The source of these data is patent US20050002868A1, “Method of treatment of a female suffering from androgen insufficiency” (Acrux DDS Pty Ltd., priority 2003, published 2005).

Structures are written as SMILES.

A short description of the data set: Open label, randomised two-way cross-over pharmacokinetic study of free serum testosterone after daily transdermal spray for 5 days. Format: in vivo, women. Here is the method:
The study was a single centre, open label pharmacokinetic study, with a randomised, two-way, cross-over design. The two treatment periods were 5 days with an eight day washout between treatments. Intensive blood sampling was performed on day 5 of each treatment period for pharmacokinetic analysis. The treatments consisted of daily application of 2×91 μL sprays for 5 days, either applied to the abdomen or forearm. Free serum testosterone concentration profiles were measured over 24 hours after daily administration of transdermal testosterone for 5 days to 6 healthy surgically menopausal women stabilized on oral oestrogen therapy. HPLC separation (followed by RIA) and equilibrium dialysis were used to measure free testosterone (Esoterix Inc.).

For `C[C@]12CC[C@H]3[C@@H](CCC4=CC(=O)CC[C@@]43C)[C@@H]1CC[C@@H]2O` [testosterone], the “average serum concentrations of free testosterone, forearm compared with abdomen” value (application to the forearm, day 5, FIG. 1) is on record as “significantly higher”. The “Steady-state concentrations of free testosterone” value (daily application for 5 days, abdomen or forearm) is “attained on day 5”. For the same compound, the “variation of free testosterone serum concentrations, abdomen compared with forearm” value (dose application to the abdomen, day 5, FIG. 1) was “considerably less variation”.
